Each block holds one compound with its values, some of them ahead of it. Activity calls are given as the source filed them. The calls are words filed in the database; no cut-off is given here.
How the values were obtained:
Rattus norvegicus [1] = experiment: Inhibition of vascular remodeling in MCT-induced Sprague-Dawley rat pulmonary arterial hypertension model assessed as decrease in MCT-induced perivascular fibrosis at 3 ug/kg, inhaled daily for 28 days by masson's trichrome staining-based assay; format: functional
[2] = Drug uptake in Sprague-Dawley rat lung at 1 mg/ml administered in trachea after 60 mins by LC-MS/MS analysis; format: ADME, tissue-based; details: inhaled or intranasal, read-out: Drug uptake
Lung [3] = experiment: Drug metabolism in Sprague-Dawley rat lung assessed as formation of CDDO-Me at 1 mg/ml administered in trachea after 90 mins by LC-MS/MS analysis; format: ADME, tissue-based; details: in vivo, inhaled_or_intranasal, 1.5 h
Lung [4] = experiment: Drug metabolism in Sprague-Dawley rat lung assessed as formation of CDDO-Me at 1 mg/ml administered in trachea after 12 hrs by LC-MS/MS analysis; format: ADME, tissue-based; details: in vivo, inhaled_or_intranasal
Plasma [5] = experiment: Drug metabolism in Sprague-Dawley rat plasma assessed as formation of CDDO-Me at 1 mg/ml administered in trachea after 15 to 720 mins by LC-MS/MS analysis; format: ADME, cell-free; details: inhaled_or_intranasal
[6] = target: T1, Nuclear factor erythroid 2-related factor 2 (Rattus norvegicus) (UniProt O54968); experiment: Induction of Nrf2 translocation to nucleus of rat pulmonary artery endothelial cells at 1 uM after 24 hrs by immunofluorescence assay
T1 sequence (whole entry): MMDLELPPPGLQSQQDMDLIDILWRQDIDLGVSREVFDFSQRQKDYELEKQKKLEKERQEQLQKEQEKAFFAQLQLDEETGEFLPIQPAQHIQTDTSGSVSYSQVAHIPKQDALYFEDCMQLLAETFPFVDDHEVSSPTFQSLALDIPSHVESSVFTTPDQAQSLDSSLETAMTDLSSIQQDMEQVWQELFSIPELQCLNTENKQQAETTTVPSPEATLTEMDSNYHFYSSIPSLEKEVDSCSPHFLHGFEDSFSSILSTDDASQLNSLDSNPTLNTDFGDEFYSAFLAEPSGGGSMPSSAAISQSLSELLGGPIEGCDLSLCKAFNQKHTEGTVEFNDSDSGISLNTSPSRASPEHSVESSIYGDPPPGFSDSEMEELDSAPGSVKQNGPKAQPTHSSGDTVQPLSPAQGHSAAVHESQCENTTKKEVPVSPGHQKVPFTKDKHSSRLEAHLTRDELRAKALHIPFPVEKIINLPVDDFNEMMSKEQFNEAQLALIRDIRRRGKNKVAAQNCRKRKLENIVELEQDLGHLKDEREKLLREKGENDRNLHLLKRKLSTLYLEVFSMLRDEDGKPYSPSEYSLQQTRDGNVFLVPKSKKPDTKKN

Rattus norvegicus [7] = experiment: Pulmonary vasodilatory effect in MCT-induced Sprague-Dawley rat pulmonary arterial hypertension model assessed as mean pulmonary artery pressure at 3 ug/kg, inhaled daily for 28 days by polygraph method (reference value: 30.63 +/- 1.16 mmHg); format: functional
Rattus norvegicus [8] = experiment: Pulmonary vasodilatory effect in MCT-induced Sprague-Dawley rat pulmonary arterial hypertension model assessed as right ventricular systolic pressure at 3 ug/kg, inhaled daily for 28 days by polygraph method (reference value: 56.09 +/- 3.24 mmHg); format: functional
Rattus norvegicus [9] = experiment: Pulmonary vasodilatory effect in MCT-induced Sprague-Dawley rat pulmonary arterial hypertension model assessed as weight ratio of right ventricle to left ventricle and septum at 3 ug/kg, inhaled daily for 28 days (reference value: 0.4796 +/- 0.030); format: functional
Rattus norvegicus [10] = experiment: Pulmonary vasodilatory effect in MCT-induced Sprague-Dawley rat pulmonary arterial hypertension model assessed as reversal of MCT-induced nitric oxide reduction in plasma at 3 ug/kg, inhaled daily for 28 days by Griess assay; format: functional
Rattus norvegicus [11] = experiment: Pulmonary vasodilatory effect in MCT-induced Sprague-Dawley rat pulmonary arterial hypertension model assessed as reversal of MCT-induced ET-1 elevation in plasma at 3 ug/kg, inhaled daily for 28 days by ELISA; format: functional
Rattus norvegicus [12] = experiment: Inhibition of vascular remodeling in MCT-induced Sprague-Dawley rat pulmonary arterial hypertension model assessed as reduction of MCT-induced medial thickness of pulmonary artery at 3 ug/kg, inhaled daily for 28 days by hematoxylin and eosin staining-based assay; format: functional
Rattus norvegicus [13] = experiment: Inhibition of vascular remodeling in MCT-induced Sprague-Dawley rat pulmonary arterial hypertension model assessed as reduction of MCT-induced pulmonary vascular muscularization by measuring downregulation of alpha-SMA levels at 3 ug/kg, inhaled daily for 28 days by immunohistochemical method; format: functional
Rattus norvegicus [14] = experiment: Inhibition of vascular remodeling in MCT-induced Sprague-Dawley rat pulmonary arterial hypertension model assessed as downregulation of MCT-induced up-expression of alpha-SMA at 3 ug/kg, inhaled daily for 28 days by Western blot method; format: functional
Rattus norvegicus [15] = experiment: Inhibition of vascular remodeling in MCT-induced Sprague-Dawley rat pulmonary arterial hypertension model assessed as decrease in MCT-induced TGF-beta expression in lung at 3 ug/kg, inhaled daily for 28 days by Western blot method; format: functional
Rattus norvegicus [16] = experiment: Inhibition of vascular remodeling in MCT-induced Sprague-Dawley rat pulmonary arterial hypertension model assessed as decrease in MCT-induced collagen-1 expression in lung at 3 ug/kg, inhaled daily for 28 days by Western blot method; format: functional
Rattus norvegicus [17] = experiment: Inhibition of vascular remodeling in MCT-induced Sprague-Dawley rat pulmonary arterial hypertension model assessed as decrease in MCT-induced increment of PCNA positive cells in lung at 3 ug/kg, inhaled daily for 28 days by immunohistochemical method; format: functional
Rattus norvegicus [18] = experiment: Inhibition of vascular remodeling in MCT-induced Sprague-Dawley rat pulmonary arterial hypertension model assessed as decrease in MCT-induced macrophage infiltration in perivascular tissue at 3 ug/kg, inhaled daily for 28 days by immunohistochemical method; format: functional
Rattus norvegicus [19] = experiment: Inhibition of oxidative response in lung of MCT-induced Sprague-Dawley rat pulmonary arterial hypertension model assessed as decrease in ratio of NOX4 positive cells and NOX4 expression at 3 ug/kg, inhaled daily for 28 days by immunohistochemical method; format: functional
Rattus norvegicus [20] = experiment: Inhibition of oxidative response in lung of MCT-induced Sprague-Dawley rat pulmonary arterial hypertension model assessed as decrease in ratio of NOX4 positive cells and NOX4 expression at 3 ug/kg, inhaled daily for 28 days by Western blot method; format: functional
Rattus norvegicus [21] = experiment: Inhibition of cardiomyocyte hypertrophy in MCT-induced Sprague-Dawley rat pulmonary arterial hypertension model at 3 ug/kg, inhaled daily for 28 days by hematoxylin and eosin staining-based assay; format: functional
Rattus norvegicus [22] = experiment: Inhibition of cardiac fibrosis in MCT-induced Sprague-Dawley rat pulmonary arterial hypertension model at 3 ug/kg, inhaled daily for 28 days by picro-sirius red staining-based assay; format: functional
[23] = (§1) Drug uptake in Sprague-Dawley rat lung at 1 mg/ml administered in trachea after 180 mins by LC-MS/MS analysis; format: ADME; details: Sprague-Dawley, lung, inhaled or intranasal, 1 mg/ml, read-out: Drug uptake
Lung [24] = experiment: as §1; format: ADME; details: in vivo, inhaled_or_intranasal, 3 h, BLD = below limit of detection
[25] = Drug uptake in Sprague-Dawley rat lung at 1 mg/ml administered in trachea after 360 mins by LC-MS/MS analysis; format: ADME, tissue-based; details: inhaled or intranasal, read-out: Drug uptake
Lung [26] = experiment: Drug level in Sprague-Dawley rat lung treated with CDDO-NO at 1 mg/ml administered in trachea after 90 to 720 mins by LC-MS/MS analysis; format: ADME, tissue-based; details: in vivo, inhaled_or_intranasal
Plasma [27] = experiment: Drug level in Sprague-Dawley rat plasma treated with CDDO-NO at 1 mg/ml administered in trachea after 15 to 720 mins by LC-MS/MS analysis; format: ADME, cell-free; details: inhaled_or_intranasal
Rattus norvegicus [28] = experiment: Pulmonary vasodilatory effect in MCT-induced Sprague-Dawley rat pulmonary arterial hypertension model assessed as mean pulmonary artery pressure at 2.1 ug/kg, inhaled daily for 28 days by polygraph method (reference value: 30.63 +/- 1.16 mmHg); format: functional
Rattus norvegicus [29] = experiment: Pulmonary vasodilatory effect in MCT-induced Sprague-Dawley rat pulmonary arterial hypertension model assessed as right ventricular systolic pressure at 2.1 ug/kg, inhaled daily for 28 days by polygraph method (reference value: 56.09 +/- 3.24 mmHg); format: functional
Rattus norvegicus [30] = experiment: Pulmonary vasodilatory effect in MCT-induced Sprague-Dawley rat pulmonary arterial hypertension model assessed as weight ratio of right ventricle to left ventricle and septum at 2.1 ug/kg, inhaled daily for 28 days (reference value: 0.4796 +/- 0.030); format: functional
Rattus norvegicus [31] = experiment: Pulmonary vasodilatory effect in MCT-induced Sprague-Dawley rat pulmonary arterial hypertension model assessed as mean pulmonary artery pressure at 2.1 ug/kg, inhaled daily for 28 days co-administered with ISMN by polygraph method (reference value: 30.63 +/- 1.16 mmHg); format: functional
Rattus norvegicus [32] = experiment: Pulmonary vasodilatory effect in MCT-induced Sprague-Dawley rat pulmonary arterial hypertension model assessed as right ventricular systolic pressure at 2.1 ug/kg, inhaled daily for 28 days co-administered with ISMN by polygraph method (reference value: 56.09 +/- 3.24 mmHg); format: functional
Rattus norvegicus [33] = experiment: Pulmonary vasodilatory effect in MCT-induced Sprague-Dawley rat pulmonary arterial hypertension model assessed as weight ratio of right ventricle to left ventricle and septum at 2.1 ug/kg, inhaled daily for 28 days co-administered with ISMN (reference value: 0.4796 +/- 0.030); format: functional
Rattus norvegicus [34] = experiment: Pulmonary vasodilatory effect in MCT-induced Sprague-Dawley rat pulmonary arterial hypertension model assessed as mean pulmonary artery pressure at 0.78 ug/kg, inhaled daily for 28 days by polygraph method (reference value: 30.63 +/- 1.16 mmHg); format: functional
Rattus norvegicus [35] = experiment: Pulmonary vasodilatory effect in MCT-induced Sprague-Dawley rat pulmonary arterial hypertension model assessed as right ventricular systolic pressure at 0.78 ug/kg, inhaled daily for 28 days by polygraph method (reference value: 56.09 +/- 3.24 mmHg); format: functional
Rattus norvegicus [36] = experiment: Pulmonary vasodilatory effect in MCT-induced Sprague-Dawley rat pulmonary arterial hypertension model assessed as weight ratio of right ventricle to left ventricle and septum at 0.78 ug/kg, inhaled daily for 28 days (reference value: 0.4796 +/- 0.030); format: functional
Rattus norvegicus [37] = experiment: Pulmonary vasodilatory effect in MCT-induced Sprague-Dawley rat pulmonary arterial hypertension model assessed as mean pulmonary artery pressure at 0.78 ug/kg, inhaled daily for 28 days co-administered with CDDO-Me by polygraph method (reference value: 30.63 +/- 1.16 mmHg); format: functional
Rattus norvegicus [38] = experiment: Pulmonary vasodilatory effect in MCT-induced Sprague-Dawley rat pulmonary arterial hypertension model assessed as right ventricular systolic pressure at 0.78 ug/kg, inhaled daily for 28 days co-administered with CDDO-Me by polygraph method (reference value: 56.09 +/- 3.24 mmHg); format: functional
Rattus norvegicus [39] = experiment: Pulmonary vasodilatory effect in MCT-induced Sprague-Dawley rat pulmonary arterial hypertension model assessed as weight ratio of right ventricle to left ventricle and septum at 0.78 ug/kg, inhaled daily for 28 days co-administered with CDDO-Me (reference value: 0.4796 +/- 0.030); format: functional

concentration at 1 h [2]: 243 ng/mL
Drug metabolism (Lung [3]): 78.5 ng/mL
Drug metabolism (Lung [4]): 15.9 ng/mL
Drug metabolism (Plasma [5]): Metabolite_Detected
Activity [6]: Active
SMILES: COC(=O)[C@]12CCC(C)(C)C[C@H]1[C@H]1C(=O)C=C3[C@@]4(C)C(O[C@@H]5CO[C@H]6[C@@H]5OC[C@H]6O[N+](=O)[O-])C(C#N)=C(OC(C)=O)C(C)(C)[C@@H]4CC[C@@]3(C)[C@]1(C)CC2 (stereo not given in full)
inhibition (Rattus norvegicus [1]): Active
Activity (Rattus norvegicus [7]): 20.72 mmHg
Activity (Rattus norvegicus [8]): 44.75 mmHg
Ratio (Rattus norvegicus [9]): 0.3656
Activity (Rattus norvegicus [10]): Active
Activity (Rattus norvegicus [11]): Active
inhibition (Rattus norvegicus [12]): Active
inhibition (Rattus norvegicus [13]): Active
inhibition (Rattus norvegicus [14]): Active
inhibition (Rattus norvegicus [15]): Active
inhibition (Rattus norvegicus [16]): Active
inhibition (Rattus norvegicus [17]): Active
inhibition (Rattus norvegicus [18]): Active
inhibition (Rattus norvegicus [19]): Active
inhibition (Rattus norvegicus [20]): Active
inhibition (Rattus norvegicus [21]): Active
inhibition (Rattus norvegicus [22]): Active

concentration at 1 h [2]: 180 to 444 ng/mL
concentration at 3 h [23]: 44.8 ng/mL
Drug uptake (Lung [24]): Bld
concentration at 6 h [25]: 3.4 ng/mL
Drug metabolism (Lung [26]): Metabolite_Detected
Drug metabolism (Plasma [27]): Metabolite_Detected
SMILES: COC(=O)[C@]12CCC(C)(C)C[C@H]1[C@H]1C(=O)C=C3[C@@]4(C)C=C(C#N)C(=O)C(C)(C)[C@@H]4CC[C@@]3(C)[C@]1(C)CC2 [BARDOXOLONE METHYL]
Activity (Rattus norvegicus [28]): 26.29 mmHg
Activity (Rattus norvegicus [29]): 61.24 mmHg
Ratio (Rattus norvegicus [30]): 0.5123
Activity (Rattus norvegicus [31]): 27.3 mmHg
Activity (Rattus norvegicus [32]): 60.12 mmHg
Ratio (Rattus norvegicus [33]): 0.4898

SMILES: O=[N+]([O-])O[C@@H]1CO[C@H]2[C@@H]1OC[C@H]2O
Activity (Rattus norvegicus [34]): 25.11 mmHg
Activity (Rattus norvegicus [35]): 60.76 mmHg
Ratio (Rattus norvegicus [36]): 0.4844
Activity (Rattus norvegicus [37]): 27.3 mmHg
Activity (Rattus norvegicus [38]): 60.12 mmHg
Ratio (Rattus norvegicus [39]): 0.4898
